Reference: patent EP4733761A1, “METHOD FOR SCREENING FOR PROTEINS ASSOCIATED WITH NEURODEGENERATIVE DISEASES AND THERAPEUTIC OR PROPHYLACTIC DRUGS FOR NEURODEGENERATIVE DISEASES” (priority 2023, dated 2026)
Peptide text beside a SMILES is read from it. * marks the point of attachment. Dansyl = CN(C)c1cccc2c(S(=O)(=O)*)cccc12

Tests used:
[1] = tested on: Dnc-PR20/Kapβ2; assay: Screening for DPRs-Kapβ2 binding inhibitors with additives (probe fluorescence attenuation); parameters: species or system human; details: Dnc-PR20 300 nM, Kapβ2 400 nM
Procedure: A buffer solution (20 mM Tris-HCl (pH 7.5), 150 mM NaCl, and 2 mM DTT (final concentration)) was used to prepare a mixture of Dnc-PR20 (final concentration 300 nM) and Kapβ2 (final concentration 400 nM), and an automatic dispensing system (Andrew+, Andrew Alliance) was used to add 20 µL/well of each to a 384-well microplate (Corning, 3820). After incubation at 35°C for 10 min, the fluorescence intensity (fluorescence wavelength: 520 nm) and fluorescence spectrum (fluorescence wavelength: 400-700 nm) were measured at an excitation wavelength of 340 nm using a microplate reader (Cytation 5, BioTek). Then, 5 µL/well of various concentrations of additives (poly K50 or IgG/pure water) were added using an automated pipetting system, and after incubation at 35°C for 10 minutes, the fluorescence intensity and fluorescence spectrum were measured under the same conditions. As a control, the Dnc-PR20 solution without Kapβ2 was measured for fluorescence intensity and fluorescence spectrum in the same manner.
In addition to poly K50 and IgG, the 520 nm fluorescence intensity of Dnc-PR20 was measured with PAMAM, GST-M9M, RanGTP, ATP, and HSA as additives, using the same procedure as in Section 6 above.

[2] = tested on: Kapβ2; assay: Kapβ2-induced fluorescence change of dansyl-DPR probes; assay type: binding, human; details: for fluorescence intensity / spectrum change on addition of Kapβ2: various Kapβ2 concentrations
Procedure: (§1) A buffer solution (20 mM Tris-HCl (pH 7.5), 150 mM NaCl, and 2 mM DTT (final concentration)) was used to prepare the probe solutions (final concentration 300 nM) for probes 1 to 7 above. Each probe solution was added to a 384-well microplate (Corning, 3575) at 30 µL/well using an automated pipetting system (Andrew+, Andrew Alliance). After incubation at 35°C for 10 min, fluorescence intensity (fluorescence wavelength: 520 nm) and fluorescence spectrum (fluorescence wavelength: 400-700 nm) at an excitation wavelength of 340 nm were measured using a microplate reader (Cytation 5, BioTek). Then, various concentrations of Kapβ2 solution (Kapβ2/pure water) were added to the 384-well microplate at 30 µL/well using an automated pipetting system. After incubation at 35°C for 10 minutes, fluorescence intensity and fluorescence spectrum were measured under the same conditions as above.

[3] = tested on: α1-antitrypsin, albumin (HSA), apotransferrin, lysozyme, immunoglobulin G (IgG); assay: Fluorescence change of probes by various proteins: other control proteins; assay type: binding, human; chicken; details: 1600 nM protein solutions; probe 300 nM
Procedure: as §1
(§2) The fluorescence intensity and fluorescence spectra of Dnc-PR20 (probe 1) and Dnc-GP20 (probe 2) were measured using the same procedure as described in Section 2 above, except that aqueous solutions (1600 nM) of bovine milk-derived β-lactoglobulin, human serum-derived α1-antitrypsin, human serum-derived albumin (HSA), human serum-derived apotransferrin, chicken egg white-derived lysozyme, or human serum-derived immunoglobulin G (IgG) were used in place of the Kapβ2 solution.

[4] = tested on: β-lactoglobulin; assay: Fluorescence change of probes by various proteins: β-lactoglobulin; assay type: binding, bovine; details: for fluorescence spectrum / 540 nm fluorescence intensity change on addition of β-lactoglobulin: 1600 nM protein solution, probe 300 nM
Procedure: as §1, §2

[5] = tested on: MBP-FUS; assay: FUS-induced fluorescence change of dansyl-DPR probes; assay type: binding, human; details: for fluorescence intensity / spectrum change on addition of MBP-FUS: various MBP-FUS concentrations
Procedure: as §1
The same procedure as in Section 2 above was used, except that MBP-tagged FUS (MBP-FUS) solution (MBP-FUS/pure water) was used in place of the Kapβ2 solution, to measure the fluorescence intensity and fluorescence spectra of Dnc-PR20 (probe 1) and Dnc-GP20 (probe 2).

[6] = tested on: Impα; assay: Fluorescence change of probes by LLPS-related proteins: Impα; assay type: binding, human; details: Impα solution 1600 nM (Figure 8)
Procedure: as §1
(§3) In addition to the proteins tested in Sections 2 to 4 above, aqueous solutions of proteins that may be relevant to the formation or control of liquid-liquid phase separation (LLPS) were used to measure the 520 nm fluorescence intensity of Dnc-PR20 (probe 1) and Dnc-GP20 (probe 2). The following proteins were used as proteins that may be associated with the formation or regulation of LLPS were Imb-2, hnRNPA2LC, PPIA, Impα, Impβ, GST-M9M, and RanGTP. […]

[7] = tested on: Imb-2; assay: Fluorescence change of probes by LLPS-related proteins: Imb-2; assay type: binding, C. elegans; details: Imb-2 solution 800 nM (Figure 8)
Procedure: as §1, §3

[8] = tested on: Impβ; assay: Fluorescence change of probes by LLPS-related proteins: Impβ; assay type: binding, human; details: Impβ solution 1600 nM (Figure 8)
Procedure: as §1, §3

[9] = probe 300 nM, excitation 340 nm

## 50-mer polylysine [poly K50]
[1]; additive 0-300 nM
  fluorescence intensity change of Dnc-PR20 in Dnc-PR20/Kapβ2 solution: decreased in a poly K50 concentration-dependent manner
[1]; control = Dnc-PR20 solution without Kapβ2
  additive concentration resulting in a fluorescence intensity comparable to that of the control: 200 nM
[1]; various additives (Figure 10)
  520 nm fluorescence intensity change of Dnc-PR20 in Dnc-PR20/Kapβ2 mixture: attenuated

## CN(C)c1cccc2c(S(=O)(=O)NCC(=O)N3CCC[C@H]3C(=O)NCC(=O)N3CCC[C@H]3C(=O)NCC(=O)N3CCC[C@H]3C(=O)NCC(=O)N3CCC[C@H]3C(=O)NCC(=O)N3CCC[C@H]3C(=O)NCC(=O)N3CCC[C@H]3C(=O)NCC(=O)N3CCC[C@H]3C(=O)NCC(=O)N3CCC[C@H]3C(=O)NCC(=O)N3CCC[C@H]3C(=O)NCC(=O)N3CCC[C@H]3C(=O)O)cccc12 [Dnc-GP10, Dansyl-NH-(Gly-Pro)10-COOH] (Dansyl-GPGPGPGPGPGPGPGPGPGP-OH)
[2]; [9]
  fluorescence intensity / spectrum change on addition of Kapβ2: unchanged

## CN(C)c1cccc2c(S(=O)(=O)NCC(=O)N3CCC[C@H]3C(=O)NCC(=O)N3CCC[C@H]3C(=O)NCC(=O)N3CCC[C@H]3C(=O)NCC(=O)N3CCC[C@H]3C(=O)NCC(=O)N3CCC[C@H]3C(=O)NCC(=O)N3CCC[C@H]3C(=O)NCC(=O)N3CCC[C@H]3C(=O)NCC(=O)N3CCC[C@H]3C(=O)NCC(=O)N3CCC[C@H]3C(=O)NCC(=O)N3CCC[C@H]3C(=O)NCC(=O)N3CCC[C@H]3C(=O)NCC(=O)N3CCC[C@H]3C(=O)NCC(=O)N3CCC[C@H]3C(=O)NCC(=O)N3CCC[C@H]3C(=O)NCC(=O)N3CCC[C@H]3C(=O)NCC(=O)N3CCC[C@H]3C(=O)NCC(=O)N3CCC[C@H]3C(=O)NCC(=O)N3CCC[C@H]3C(=O)NCC(=O)N3CCC[C@H]3C(=O)NCC(=O)N3CCC[C@H]3C(=O)O)cccc12 [Dnc-GP20, Dansyl-NH-(Gly-Pro)20-COOH] (Dansyl-GPGPGPGPGPGPGPGPGPGPGPGPGPGPGPGPGPGPGPGP-OH)
[3]
  fluorescence spectrum change on addition of the other proteins: did not exhibit substantial changes
[4]
  fluorescence spectrum / 540 nm fluorescence intensity change on addition of β-lactoglobulin: did not exhibit substantial changes
[2]; [9]
  fluorescence intensity / spectrum change on addition of Kapβ2: little changed
[5]; [9]
  fluorescence intensity / spectrum change on addition of MBP-FUS: hardly changed

## CN(C)c1cccc2c(S(=O)(=O)NCC(=O)N[C@@H](CCCNC(=N)N)C(=O)NCC(=O)N[C@@H](CCCNC(=N)N)C(=O)NCC(=O)N[C@@H](CCCNC(=N)N)C(=O)NCC(=O)N[C@@H](CCCNC(=N)N)C(=O)NCC(=O)N[C@@H](CCCNC(=N)N)C(=O)NCC(=O)N[C@@H](CCCNC(=N)N)C(=O)NCC(=O)N[C@@H](CCCNC(=N)N)C(=O)NCC(=O)N[C@@H](CCCNC(=N)N)C(=O)NCC(=O)N[C@@H](CCCNC(=N)N)C(=O)NCC(=O)N[C@@H](CCCNC(=N)N)C(=O)O)cccc12 [Dnc-GR10, Dansyl-NH-(Gly-Arg)10-COOH] (Dansyl-GRGRGRGRGRGRGRGRGRGR-OH)
[2]; [9]
  fluorescence intensity / spectrum change on addition of Kapβ2: increased in a Kapβ2 concentration-dependent manner

## C[C@H](NC(=O)[C@@H]1CCCN1C(=O)[C@H](C)NC(=O)[C@@H]1CCCN1C(=O)[C@H](C)NC(=O)[C@@H]1CCCN1C(=O)[C@H](C)NC(=O)[C@@H]1CCCN1C(=O)[C@H](C)NC(=O)[C@@H]1CCCN1C(=O)[C@H](C)NC(=O)[C@@H]1CCCN1C(=O)[C@H](C)NC(=O)[C@@H]1CCCN1C(=O)[C@H](C)NC(=O)[C@@H]1CCCN1C(=O)[C@H](C)NC(=O)[C@@H]1CCCN1C(=O)[C@H](C)NC(=O)[C@@H]1CCCN1S(=O)(=O)c1cccc2c(N(C)C)cccc12)C(=O)O [Dnc-PA10, Dansyl-NH-(Pro-Ala)10-COOH] (Dansyl-PAPAPAPAPAPAPAPAPAPA-OH)
[2]; [9]
  fluorescence intensity / spectrum change on addition of Kapβ2: unchanged

## CN(C)c1cccc2c(S(=O)(=O)N3CCC[C@H]3C(=O)N[C@@H](CCCNC(=N)N)C(=O)N3CCC[C@H]3C(=O)N[C@@H](CCCNC(=N)N)C(=O)N3CCC[C@H]3C(=O)N[C@@H](CCCNC(=N)N)C(=O)N3CCC[C@H]3C(=O)N[C@@H](CCCNC(=N)N)C(=O)N3CCC[C@H]3C(=O)N[C@@H](CCCNC(=N)N)C(=O)N3CCC[C@H]3C(=O)N[C@@H](CCCNC(=N)N)C(=O)N3CCC[C@H]3C(=O)N[C@@H](CCCNC(=N)N)C(=O)N3CCC[C@H]3C(=O)N[C@@H](CCCNC(=N)N)C(=O)N3CCC[C@H]3C(=O)N[C@@H](CCCNC(=N)N)C(=O)N3CCC[C@H]3C(=O)N[C@@H](CCCNC(=N)N)C(=O)O)cccc12 [Dnc-PR10, Dansyl-NH-(Pro-Arg)10-COOH] (Dansyl-PRPRPRPRPRPRPRPRPRPR-OH)
[2]; [9]
  fluorescence intensity / spectrum change on addition of Kapβ2: increased in a Kapβ2 concentration-dependent manner

## CN(C)c1cccc2c(S(=O)(=O)N3CCC[C@H]3C(=O)N[C@@H](CCCNC(=N)N)C(=O)N3CCC[C@H]3C(=O)N[C@@H](CCCNC(=N)N)C(=O)N3CCC[C@H]3C(=O)N[C@@H](CCCNC(=N)N)C(=O)N3CCC[C@H]3C(=O)N[C@@H](CCCNC(=N)N)C(=O)N3CCC[C@H]3C(=O)N[C@@H](CCCNC(=N)N)C(=O)N3CCC[C@H]3C(=O)N[C@@H](CCCNC(=N)N)C(=O)N3CCC[C@H]3C(=O)N[C@@H](CCCNC(=N)N)C(=O)N3CCC[C@H]3C(=O)N[C@@H](CCCNC(=N)N)C(=O)N3CCC[C@H]3C(=O)N[C@@H](CCCNC(=N)N)C(=O)N3CCC[C@H]3C(=O)N[C@@H](CCCNC(=N)N)C(=O)N3CCC[C@H]3C(=O)N[C@@H](CCCNC(=N)N)C(=O)N3CCC[C@H]3C(=O)N[C@@H](CCCNC(=N)N)C(=O)N3CCC[C@H]3C(=O)N[C@@H](CCCNC(=N)N)C(=O)N3CCC[C@H]3C(=O)N[C@@H](CCCNC(=N)N)C(=O)N3CCC[C@H]3C(=O)N[C@@H](CCCNC(=N)N)C(=O)N3CCC[C@H]3C(=O)N[C@@H](CCCNC(=N)N)C(=O)N3CCC[C@H]3C(=O)N[C@@H](CCCNC(=N)N)C(=O)N3CCC[C@H]3C(=O)N[C@@H](CCCNC(=N)N)C(=O)N3CCC[C@H]3C(=O)N[C@@H](CCCNC(=N)N)C(=O)N3CCC[C@H]3C(=O)N[C@@H](CCCNC(=N)N)C(=O)O)cccc12 [Dnc-PR20, Dansyl-NH-(Pro-Arg)20-COOH] (Dansyl-PRPRPRPRPRPRPRPRPRPRPRPRPRPRPRPRPRPRPRPR-OH)
[6]
  520 nm fluorescence: above 1000
[3]
  fluorescence spectrum change on addition of the other proteins: did not exhibit substantial changes
[4]
  fluorescence spectrum / 540 nm fluorescence intensity change on addition of β-lactoglobulin: slightly increased
[4]; β-lactoglobulin solution 1600 nM (Figure 8)
  520 nm fluorescence: above 1000
[7]
  520 nm fluorescence: above 1000
[8]
  520 nm fluorescence: above 1000
[2]; 1600 nM Kapβ2, probe 300 nM, excitation 340 nm
  540 nm fluorescence intensity increase compared to the fluorescence intensity at 0 nM Kapβ2: approximately 6.1 fold
[2]; Kapβ2 solution 1600 nM (Figure 8)
  520 nm fluorescence: above 1000
[2]; [9]
  fluorescence intensity / spectrum change on addition of Kapβ2: increased in a Kapβ2 concentration-dependent manner
[5]; 1600 nM MBP-FUS, probe 300 nM, excitation 340 nm
  540 nm fluorescence intensity increase compared to the fluorescence intensity at 0 nM MBP-FUS: approximately 4.6 fold
[5]; MBP-FUS solution 1600 nM (Figure 8)
  520 nm fluorescence: above 1000
[5]; [9]
  fluorescence intensity / spectrum change on addition of MBP-FUS: increased in an MBP-FUS concentration-dependent manner

## Dansyl-NH-(Gly-Ala)19-COOH (Dansyl-GAGAGAGAGAGAGAGAGAGA-OH) [Dnc-GA10]
[2]; [9]
  fluorescence intensity / spectrum change on addition of Kapβ2: unchanged
